According to patent US12643886B2 (Ontario Institute for Cancer Research (OICR), priority 2021, dated 2026):

Tests used:
Format in all cases: biochemical
NUAK2 (h) = target: T1, NUAK2 (h) (Homo sapiens, UniProt Q9H093); assay: NUAK2 enzymatic assay (radiometric, Eurofins); settings: full-length recombinant enzyme
T1 construct: This assay was done radiometrically using full-length, recombinant enzyme; purchased Eurofins
T1 sequence (Q9H093 1-628): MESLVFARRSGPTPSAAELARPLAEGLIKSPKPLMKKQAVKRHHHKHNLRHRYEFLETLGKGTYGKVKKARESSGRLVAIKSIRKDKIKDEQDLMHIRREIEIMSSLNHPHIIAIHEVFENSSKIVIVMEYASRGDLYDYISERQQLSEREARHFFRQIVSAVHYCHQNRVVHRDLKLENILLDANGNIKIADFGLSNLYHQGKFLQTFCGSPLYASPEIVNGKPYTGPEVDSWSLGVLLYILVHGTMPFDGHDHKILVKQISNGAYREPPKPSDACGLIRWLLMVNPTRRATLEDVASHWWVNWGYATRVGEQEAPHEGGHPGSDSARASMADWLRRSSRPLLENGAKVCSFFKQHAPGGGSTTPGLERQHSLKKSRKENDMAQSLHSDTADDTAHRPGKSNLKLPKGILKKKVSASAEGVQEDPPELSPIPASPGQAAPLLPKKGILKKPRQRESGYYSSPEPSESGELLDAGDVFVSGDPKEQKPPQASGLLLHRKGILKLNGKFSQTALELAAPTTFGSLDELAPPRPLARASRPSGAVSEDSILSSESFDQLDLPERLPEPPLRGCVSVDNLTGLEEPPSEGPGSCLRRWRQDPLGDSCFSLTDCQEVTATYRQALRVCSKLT
Experimental: (§1) To identify small molecule NUAK inhibitors, a biochemical NUAK2 enzymatic assay were outsourced to Eurofins. This assay was done radiometrically using full-length, recombinant enzyme. NUAK2 (h) was incubated with 8 mM MOPS pH 7.0, 0.2 mM EDTA, 300 μM […], 10 mM magnesium acetate and […] (specific activity and concentration as required). The reaction was initiated by the addition of the Mg/ATP mix. After incubation for 40 minutes at room temperature, the reaction was stopped by the addition of phosphoric acid to a concentration of 0.5%. 10 μL of the reaction was then spotted onto a P30 filtermat and washed four times for 4 minutes in 0.425% phosphoric acid and once in methanol prior to drying and scintillation counting. Compounds were routinely counter-screened against Aurora A and NUAK1. The results are shown in Table 1 where IC50's are reported in the following ranges: A: 0.1-10 nM; B: 11-100 nM; C: 101-1000 nM; D: >1000 nM for the compounds of Formula (I)

NUAK1 = target: T2, NUAK1 (Homo sapiens, UniProt O60285); assay: Counter-screen against NUAK1
T2 sequence (O60285 1-661): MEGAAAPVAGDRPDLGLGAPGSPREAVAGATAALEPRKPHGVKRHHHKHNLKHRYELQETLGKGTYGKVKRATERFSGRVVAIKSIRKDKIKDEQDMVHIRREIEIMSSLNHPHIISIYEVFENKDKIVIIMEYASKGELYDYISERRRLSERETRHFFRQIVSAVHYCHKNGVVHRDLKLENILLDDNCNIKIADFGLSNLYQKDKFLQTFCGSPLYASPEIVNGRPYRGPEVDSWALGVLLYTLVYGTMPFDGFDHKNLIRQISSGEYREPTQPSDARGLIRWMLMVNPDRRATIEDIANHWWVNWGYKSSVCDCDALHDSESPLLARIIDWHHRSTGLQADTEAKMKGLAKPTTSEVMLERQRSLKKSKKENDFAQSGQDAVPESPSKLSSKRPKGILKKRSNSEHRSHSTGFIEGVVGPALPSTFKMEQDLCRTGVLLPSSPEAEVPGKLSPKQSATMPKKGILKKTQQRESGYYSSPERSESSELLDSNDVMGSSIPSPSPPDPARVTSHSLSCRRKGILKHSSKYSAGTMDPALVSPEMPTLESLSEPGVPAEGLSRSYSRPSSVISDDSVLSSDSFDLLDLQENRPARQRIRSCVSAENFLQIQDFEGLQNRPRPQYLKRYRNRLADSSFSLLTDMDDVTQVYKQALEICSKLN
Experimental: as §1

Aurora A = target: T3, Aurora A (Homo sapiens, UniProt O14965); assay: Counter-screen against Aurora A; settings: read-out: AUR-A (IC50)
T3 sequence (O14965 1-403): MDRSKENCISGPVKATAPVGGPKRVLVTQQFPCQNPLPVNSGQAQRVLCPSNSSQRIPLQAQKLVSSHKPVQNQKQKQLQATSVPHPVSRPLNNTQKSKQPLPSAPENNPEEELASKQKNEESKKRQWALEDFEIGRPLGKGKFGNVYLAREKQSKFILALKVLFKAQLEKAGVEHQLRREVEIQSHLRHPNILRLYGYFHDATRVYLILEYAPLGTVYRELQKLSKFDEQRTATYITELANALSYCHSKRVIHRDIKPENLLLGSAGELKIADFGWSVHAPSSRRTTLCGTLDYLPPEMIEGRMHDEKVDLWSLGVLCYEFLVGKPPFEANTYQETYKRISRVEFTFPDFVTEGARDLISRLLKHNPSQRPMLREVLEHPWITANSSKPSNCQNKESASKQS
Experimental: as §1

Compound	IC50 (NUAK2 (h))	IC50 (NUAK1)	IC50 (Aurora A)
CCN1CCN(c2ccc(Nc3nccc(Nc4cccc5c4C(=O)NC5)n3)cc2F)CC1 [Compound I-2, 7-((2-((4-(4-ethylpiperazin-1-yl)-3-fluorophenyl)amino)pyrimidin-4-yl)amino)isoindolin-1-one]	0.011 to 0.1 µM	0.0001 to 0.01 µM	0.0001 to 0.01 µM
COc1cc2c(cc1Nc1ncc(Cl)c(Nc3cccc4c3C(=O)NC4)n1)CN(C)CC2 [Compound I-3, 7-((5-chloro-2-((6-methoxy-2-methyl-1,2,3,4-tetrahydroisoquinolin-7-yl)amino)pyrimidin-4-yl)amino)isoindolin-1-one]	0.011 to 0.1 µM	0.101 to 1 µM	0.101 to 1 µM
COc1c(Nc2ncc(Cl)c(Nc3cccc4c3C(=O)NC4)n2)ccc(N2CCN3CCCC3C2)c1F (stereo not shown) [Compound I-6, 7-((5-chloro-2-((3-fluoro-4-(hexahydropyrrolo[1,2-a]pyrazin-2(1H)-yl)-2-methoxyphenyl)amino)pyrimidin-4-yl)amino)isoindolin-1-one]	0.011 to 0.1 µM	0.011 to 0.1 µM	0.101 to 1 µM
COc1c(Nc2ncc(Cl)c(Nc3cccc4c3C(=O)NC4)n2)ccc(N2CCC(N3CCN(C)CC3)CC2)c1F [Compound I-7, 7-((5-chloro-2-((3-fluoro-2-methoxy-4-(4-(4-methylpiperazin-1-yl)piperidin-1-yl)phenyl)amino)pyrimidin-4-yl)amino)isoindolin-1-one]	0.011 to 0.1 µM	0.011 to 0.1 µM	0.101 to 1 µM
CN1CCN(c2ccc(Nc3ncc(Cl)c(Nc4cccc5c4C(=O)NC5)n3)c(C(F)(F)F)c2)CC1 [Compound I-8, 7-((5-chloro-2-((4-(4-methylpiperazin-1-yl)-2-(trifluoromethyl)phenyl)amino)pyrimidin-4-yl)amino)isoindolin-1-one]	0.011 to 0.1 µM	0.101 to 1 µM	0.101 to 1 µM
CC(C)Oc1cc(N2CCN(C)CC2)ccc1Nc1ncc(Cl)c(Nc2cccc3c2C(=O)NC3)n1 [Compound I-11, 7-((5-chloro-2-((2-isopropoxy-4-(4-methylpiperazin-1-yl)phenyl)amino)pyrimidin-4-yl)amino)isoindolin-1-one]	0.101 to 1 µM	> 1 µM	> 1 µM
COc1nc(N2CCN(C)CC2)ccc1Nc1ncc(Cl)c(Nc2cccc3c2C(=O)NC3)n1 [Compound I-14, 7-((5-chloro-2-((2-methoxy-6-(4-methylpiperazin-1-yl)pyridin-3-yl)amino)pyrimidin-4-yl)amino)isoindolin-1-one]	0.011 to 0.1 µM	0.0001 to 0.01 µM	0.011 to 0.1 µM
Cc1c(N2CCN(C)CC2)ccc(Nc2ncc(Cl)c(Nc3cccc4c3C(=O)NC4)n2)c1Cl [Compound I-15, 7-((5-chloro-2-((2-chloro-3-methyl-4-(4-methylpiperazin-1-yl)phenyl)amino)pyrimidin-4-yl)amino)isoindolin-1-one]	0.011 to 0.1 µM	0.011 to 0.1 µM	0.101 to 1 µM
COc1cc2c(cc1Nc1ncc(Cl)c(Nc3cccc4c3C(=O)NC4)n1)CN(C)CC2(C)C [Compound I-16, 7-((5-chloro-2-((6-methoxy-2,4,4-trimethyl-1,2,3,4-tetrahydroisoquinolin-7-yl)amino)pyrimidin-4-yl)amino)isoindolin-1-one]	0.011 to 0.1 µM	0.011 to 0.1 µM	> 1 µM
COc1cc2c(cc1Nc1ncc(Cl)c(Nc3cccc4c3C(=O)NC4)n1)CCNC2 [Compound I-17, 7-((5-chloro-2-((7-methoxy-1,2,3,4-tetrahydroisoquinolin-6-yl)amino)pyrimidin-4-yl)amino)isoindolin-1-one]	0.011 to 0.1 µM	0.011 to 0.1 µM	> 1 µM
CN1CCN(c2ccc(Nc3ncc(Cl)c(Nc4ccc(F)c5c4C(=O)NC5)n3)c(OC(F)F)c2)CC1 [Compound I-84, 7-((5-chloro-2-((2-(difluoromethoxy)-4-(4-methylpiperazin-1-yl)phenyl)amino)pyrimidin-4-yl)amino)-4-fluoroisoindolin-1-one]	0.0001 to 0.01 µM	–	> 1 µM
COc1cc(CN(C)C)ccc1Nc1ncc(Cl)c(Nc2ccc(F)c3c2C(=O)NC3)n1 [Compound I-85, 7-((5-chloro-2-((4-((dimethylamino)methyl)-2-methoxyphenyl)amino)pyrimidin-4-yl)amino)-4-fluoroisoindolin-1-one]	0.011 to 0.1 µM	–	> 1 µM

Results, then the compound that gave them:

IC50 (NUAK2 (h))	IC50 (NUAK1)	IC50 (Aurora A)	Compound
0.0001 to 0.01 µM	0.011 to 0.1 µM	0.101 to 1 µM	CN1CCN(c2ccc(Nc3ncc(Cl)c(Nc4cccc5c4C(=O)NC5)n3)c(OC(F)F)c2)CC1 [Compound I-1, 7-((5-chloro-2-((2-(difluoromethoxy)-4-(4-methylpiperazin-1-yl)phenyl)amino)pyrimidin-4-yl)amino)isoindolin-1-one]
0.0001 to 0.01 µM	0.011 to 0.1 µM	0.0001 to 0.01 µM	CCN1CCN(c2ccc(Nc3ncc(Cl)c(Nc4cccc5c4C(=O)NC5)n3)cc2F)CC1 [Compound I-4, 7-((5-chloro-2-((4-(4-ethylpiperazin-1-yl)-3-fluorophenyl)amino)pyrimidin-4-yl)amino)isoindolin-1-one]
0.0001 to 0.01 µM	0.011 to 0.1 µM	0.011 to 0.1 µM	COc1cc(N2CCN(C)CC2)ccc1Nc1ncc(Cl)c(Nc2cccc3c2C(=O)NC3)n1 [Compound I-5, 7-((5-chloro-2-((2-methoxy-4-(4-methylpiperazin-1-yl)phenyl)amino)pyrimidin-4-yl)amino)isoindolin-1-one]
0.0001 to 0.01 µM	0.011 to 0.1 µM	0.101 to 1 µM	CN1CCN(C2CCN(c3ccc(Nc4ncc(Cl)c(Nc5cccc6c5C(=O)NC6)n4)c(OC(F)F)c3)CC2)CC1 [Compound I-9, 7-((5-chloro-2-((2-(difluoromethoxy)-4-(4-(4-methylpiperazin-1-yl)piperidin-1-yl)phenyl)amino)pyrimidin-4-yl)amino)isoindolin-1-one]
0.0001 to 0.01 µM	0.0001 to 0.01 µM	0.0001 to 0.01 µM	CN1CCc2ccc(Nc3ncc(Cl)c(Nc4cccc5c4C(=O)NC5)n3)cc2C1 [Compound I-10, 7-((5-chloro-2-((2-methyl-1,2,3,4-tetrahydroisoquinolin-7-yl)amino)pyrimidin-4-yl)amino)isoindolin-1-one]
0.0001 to 0.01 µM	0.011 to 0.1 µM	> 1 µM	COc1cc2c(cc1Nc1ncc(Cl)c(Nc3cccc4c3C(=O)NC4)n1)CCN(C)C2 [Compound I-12, 7-((5-chloro-2-((7-methoxy-2-methyl-1,2,3,4-tetrahydroisoquinolin-6-yl)amino)pyrimidin-4-yl)amino)isoindolin-1-one]
0.0001 to 0.01 µM	0.011 to 0.1 µM	0.011 to 0.1 µM	COc1nc(N2CCC(N3CCN(C)CC3)CC2)ccc1Nc1ncc(Cl)c(Nc2cccc3c2C(=O)NC3)n1 [Compound I-13, 7-((5-chloro-2-((2-methoxy-6-(4-(4-methylpiperazin-1-yl)piperidin-1-yl)pyridin-3-yl)amino)pyrimidin-4-yl)amino)isoindolin-1-one]
